Laboratory results from patent publication US11723947B2, “Anti-senescence compounds and uses thereof” (Erasmus University Medical Center Rotterdam, priority 2015, dated 2023).
Peptide text beside a SMILES is read from it. * marks the point of attachment. Cbz = O=C(OCc1ccccc1)*; CH2F = FC*

Tests used:
[1] = system: Senescent and control IMR90; conditions: for effect on effectiveness of FOXO4 DRI in lowering senescent cell viability: viability measured one day earlier; for effect of pan-caspase inhibitor on the FOXO4 DRI effect on senescent cell viability: 20 μM inhibitor, 25 μM FOXO4 DRI, senescent IMR90, 6 days
Method: The selectivity index (S.I.) for the EC50 values was determined after […] (GraphPad Prism) of the curves. […] Real-time cell density was measured using an xCELLigence detection system (ACEA Biosciences). Prior to the start of the measurement 50 μL DMEM 10% FCS was added to each well of an E-plate view 16 (Roche) to determine background signal. Non-senescent (2000 cells per well) and senescent (5000 cells/well) IMR90 fibroblasts were then plated in 150 μl medium. 16 hours later the E-plate was placed in the xCELLigence reader and the cell density was recorded every 30 minutes. […] Measurements continued for the indicated time-points. […] Experiment as in FIG. 2C, but with the indicated peptides. […] Cells were plated in 4-well Poly-L-Lysine coated glass bottom 35 mm dishes (D141410; Matsumi, Japan) and incubated with NucView488 Caspase-3 (4440; Essen Bioscience). […] 8h after addition the real-time imaging was initiated and every 30 min a grid of 3×3 pictures was imaged. The imaging continued for another 6 days and the images were concatenated using Zen imaging software. […] After 6 days cell viability was determined as in FIG. 2C). […] Experiment as in FIG. 2C, but according to the indicated treatment plan. Instead of one single dose, three doses were given (one day in between) of ⅓ that concentration each time. […] Left: Experiment as in FIG. 2C, but on cells pretreated once daily for two days with IL-1α Receptor Antagonist (RA), which blocks IL-1α/β signaling, recombinant IL-6 and recombinant IL-1α/β. […] Right: Similar experiment as in the left panel, except viability measured one day earlier. […] In senescent cells p53 signaling causes upregulation of the cell-cycle arrest and pro-survival protein p21Cip1. […] Experiment as in FIG. 2K. […] Experiment as in FIG. 2c, but with control and senescent IMR90 stable transduced with shRNAs against p53 or a control shRNA (shGFP).
A) Control IMR90 and IMR90 induced to senesce through 10Gy IR were plated in triplicate for each condition in a 96-well plate. […] After 6 days viability was determined through AqeousOne celltiter assay (Promega) according to the manufacturer's instructions.
Non-senescent (=“normal”, proliferating) IMR90 cells (ATCC #CCL-186, a diploid primary human fibroblast adherent cell line derived from fetal lung tissue) were irradiated with 10Gy Gamma-IR (IR=irradiation). After 7 days these cells are senescent and can be used for experiments comparing them to their non-irradiated (=non-senescent) counterparts. Senescent and non-senescent IMR90 fibroblasts were plated for longitudinal cell density measurement using the xCELLigence system (ACEA Biosciences, Inc., San Diego, Calif.).
(§1) 5000 senescent (obtained as described above) and 2000 non-senescent IMR90 fibroblasts were plated in 96-well plates incubated with concentrations of NQDI between 0-20 μM and after 6 days cell viability was determined by AqueousOne CellTiter (MTT) assay according to the manufacturer's instructions.
as §1, with “R406, ranging from 16, 32, 64 to 128 nM” for “NQDI between 0-20 μM”
Normal human IMR90 fibroblasts were exposed to 10 Gy Ionizing Radiation or treated 3× (bidaily) with 0.5 μM Doxorubicin. Seven days later they were processed for SA-β-Gal staining to visualize senescent cells. […] DAPI was used as a counterstain to visualize nuclei. […] After 6 days the cell viability was determined using an AqueousOne Celltiter (MTT) assay according to the manufacturer's instructions.

IMR90 cells = test: Senescence markers in Doxorubicin-treated IMR90 in vitro; assay type: cell-based, human
Method: IMR90 cells were exposed twice to 0.5 μM Doxorubicin with one day in between. SA-β-GAL activity was determined 7 days later. […] This figure complements FIG. 4A+B by showing that next to the senescence markers SA-β-Gal and p16^ink4a also the SASP marker IL-6 is elevated by Doxorubicin. […] Mice were i.p. injected with 10 mg/kg Doxorubicin and analyzed for RLUC on the indicated time-points. Changes in RLUC intensity for 5 animals are plotted for the indicated timepoints after injection. […] Following one dose of Doxorubicin (10 mg/kg, i.p.) the mice were treated with FOXO4 DRI (n=6; 4×10 mg/kg i.v.) or PBS (n=4; 4× Mock) and processed for RLUC imaging after 14 d. […] Mice treated as indicated in FIG. 4F were analyzed for Bioluminescence. […] H) To improve the window for measuring healthspan changes, the treatment regime from FIG. 4F) was extended with one additional dose of Doxorubicin and milder FOXO4 DRI treatment. Following two doses of Doxorubicin (both 10 mg/kg i.p.) the mice (n=3 each group) were subsequentially treated with PBS or FOXO4 DRI (3×5 mg/kg, 1 d in between) and 14 d later analyzed for changes in healthspan. […] Post-mortem analysis of liver sections from mice (n=2 each group) treated as in FIG. 4H and stained for FOXO4. The number of FOXO4 foci was objectively quantified using ImageJ. […] Liver sections from the experiment in FIG. 4I were stained for IL-6. […] Mice treated as depicted in FIG. 4H (n=9 for PBS, n=11 for FOXO4 DRI) were analyzed for total body weight before and after Doxorubicin-exposure followed by treatment with PBS or FOXO4 DRI. The ratio was plotted. […] Experiment as in FIG. 4H. n=3 animals per group.
DAPI was used as a counterstain to visualize nuclei. […] The histograms show % viability for the indicated conditions (.

[2] = system: p16^ink4a-positive senescence; test: Doxorubicin-induced senescence in p16::3MR mice (RLUC bioluminescence, SA-beta-GAL); assay type: in vivo, mouse
Method: IMR90 cells were exposed twice to 0.5 μM Doxorubicin with one day in between. SA-β-GAL activity was determined 7 days later. […] This figure complements FIG. 4A+B by showing that next to the senescence markers SA-β-Gal and p16^ink4a also the SASP marker IL-6 is elevated by Doxorubicin. […] Mice were i.p. injected with 10 mg/kg Doxorubicin and analyzed for RLUC on the indicated time-points. Changes in RLUC intensity for 5 animals are plotted for the indicated timepoints after injection. […] Following one dose of Doxorubicin (10 mg/kg, i.p.) the mice were treated with FOXO4 DRI (n=6; 4×10 mg/kg i.v.) or PBS (n=4; 4× Mock) and processed for RLUC imaging after 14 d. […] Mice treated as indicated in FIG. 4F were analyzed for Bioluminescence. […] H) To improve the window for measuring healthspan changes, the treatment regime from FIG. 4F) was extended with one additional dose of Doxorubicin and milder FOXO4 DRI treatment. Following two doses of Doxorubicin (both 10 mg/kg i.p.) the mice (n=3 each group) were subsequentially treated with PBS or FOXO4 DRI (3×5 mg/kg, 1 d in between) and 14 d later analyzed for changes in healthspan. […] Post-mortem analysis of liver sections from mice (n=2 each group) treated as in FIG. 4H and stained for FOXO4. The number of FOXO4 foci was objectively quantified using ImageJ. […] Mice treated as depicted in FIG. 4H (n=9 for PBS, n=11 for FOXO4 DRI) were analyzed for total body weight before and after Doxorubicin-exposure followed by treatment with PBS or FOXO4 DRI. […]
Our senescence-detection model makes use of a construct in which the promoter of p16^ink4a drives a so-called trimodality reporter (3MR) referred to as p16::3MR. […] RLUC and RFP allow visualization of senescent cells in real-time through bioluminescence and fluorescence, respectively. […] On day 0, p16::3MR mice (Demaria et al., Developmental Cell, 31:6 p. 722-733 (2014)) including the Supplemental Experimental procedures) were i.p. injected with 10 mg/kg Doxorubicin and RLUC activity as measure of senescence was determined on the indicated timepoints. […]

Doxorubicin-treated mice = test: Doxorubicin-treated mice: liver sections, body weight, plasma ASAT and Amylase; assay type: in vivo
Method: IMR90 cells were exposed twice to 0.5 μM Doxorubicin with one day in between. SA-β-GAL activity was determined 7 days later. […] Mice were i.p. injected with 10 mg/kg Doxorubicin and analyzed for RLUC on the indicated time-points. Changes in RLUC intensity for 5 animals are plotted for the indicated timepoints after injection. […] Mice treated as indicated in FIG. 4F were analyzed for Bioluminescence. […] Liver sections from the experiment in FIG. 4I were stained for IL-6. […] The ratio was plotted. […] Experiment as in FIG. 4H. n=3 animals per group.

CN(C)CC[C@H](CSc1ccccc1)Nc1ccc(S(=O)(=O)NC(=O)c2ccc(N3CCN(Cc4ccccc4-c4ccc(Cl)cc4)CC3)cc2)cc1[N+](=O)[O-] [ABT-737]
toxicity to non-senescent cells [1]: proved to be toxic to non-senescent cells | killing/clearing of senescent cells ([1]; 3× at ⅓, 3 days in between, senescence by IR): only showed limited effectiveness on killing senescent cells

C[C@]12CCC(=O)C=C1CC[C@@H]1[C@@H]2[C@@H](O)C[C@@]2(C)[C@H]1CC[C@]2(O)C(=O)CO [Cortisol]
effect on effectiveness of FOXO4 DRI in lowering senescent cell viability [1]: reduce the effectiveness of FOXO4 DRI in lowering senescent cell viability

COc1cccc2c1C(=O)c1c(O)c3c(c(O)c1C2=O)C[C@@](O)(C(=O)CO)C[C@@H]3O[C@H]1C[C@H](N)[C@H](O)[C@H](C)O1 [Doxorubicin]
SA-β-GAL expression (IMR90 cells; IMR90, twice 0.5 μM, 7 days later): induces SA-β-GAL expression in IMR90 cells in vitro | IL-6 (SASP marker) (IMR90 cells; IMR90 in vitro): induces IL-6, indicative of elevated SASP | expression of p16^ink4a and FOXO4 (IMR90 cells; IMR90 in vitro): induces expression of p 16^ink4a and FOXO4 in IMR90 in vitro | induction of senescence in vivo (RLUC) ([2]; 10 mg/kg i.p., p16::3MR mice): induces p16^ink4a-mediated senescence in vivo | organ toxicity (liver, pancreas) (Doxorubicin-treated mice; mouse, in vivo, ip, 10 mg/kg): caused organ toxicity | total body weight (Doxorubicin-treated mice; two doses 10 mg/kg i.p., mice): causes a drop in body weight

CC(C)[C@H](NC(=O)c1ccc2ccccc2n1)C(=O)N[C@@H](CC(=O)O)C(=O)COc1c(F)cccc1F [QVD-OPH]
effect of pan-caspase inhibitor on the FOXO4 DRI effect on senescent cell viability [1]: potently blocked the effect of FOXO4 DRI to reduce senescent cell viability

O=c1c(O)c(-c2ccc(O)c(O)c2)oc2cc(O)cc(O)c12 [Quesrcetin]
clearing of senescent IMR90, viability senescent vs non-senescent ([1]; Quesrcetin alone): inefficent towards clearing senescent IMR90

COc1cc(Nc2ncc(F)c(Nc3ccc4c(n3)NC(=O)C(C)(C)O4)n2)cc(OC)c1OC [R406, 6-(5-fluoro-2-(3,4,5-trimethoxyphenylamino)pyrimidin-4-ylamino)-2,2-dimethyl-2H-pyrido[3,2-b][1,4] oxazin-3 (4H)-one benzenesulfonate]
% viability over Mock, senescent and non-senescent IMR90 ([1]; 16, 32, 64 to 128 nM, 6 days): selectively reduces senescent cell viability | SA-beta-GAL deposits in kidneys ([2]; Doxorubicin 10 mg/kg i.p. day 0, once daily i.v. day 11-14): reduced SA-beta-GAL deposits in kidneys | Doxorubicin-induced senescence in vivo (bioluminescence) ([2]; Doxorubicin 10 mg/kg i.p. day 0, once daily i.v. day 11-14, imaging day 11 and day 21): repress Doxorubicin-induced senescence in vivo

COC(=O)C[C@H](NC(=O)[C@H](C)NC(=O)[C@@H](NC(=O)OCc1ccccc1)C(C)C)C(=O)CF [ZVAD-FMK] (Cbz-Val-Ala-Asp(OMe)-CH2F)
effect of pan-caspase inhibitor on the FOXO4 DRI effect on senescent cell viability [1]: potently blocked the effect of FOXO4 DRI to reduce senescent cell viability

IL-1RA: IL-1α Receptor Antagonist, which blocks IL-1α/β signaling
effect of pretreatment on effectiveness of FOXO4 DRI for killing senescent cells ([1]; pretreated once daily for two days, FOXO4 DRI 12.5 μM): reduced the effectiveness of FOXO4 DRI

Lipopolysaccharide
effect on effectiveness of FOXO4 DRI in lowering senescent cell viability [1]: improves it
